Data published in PMC10265664, “Peptide Antibiotic–Polyphosphate Nanoparticles: A Promising Strategy to Overcome the Enzymatic and Mucus Barrier of the Intestine” (Biomacromolecules, 2023).
Like-named read-outs stand apart in the source and are kept apart here.

Legend:
[1] = test system: 50 multidrug-resistant Gram-negative bacterial strains; design: method as in PMID 33045992; details: cited from earlier work
[2] = test system: lipase from porcine pancreas; test: Degradation study with lipase; type: in vitro ADME; details: porcine pancreatic lipase, 37 °C, sampling 0-24 h, absorbance 210 nm, mean n = 3
Protocol: Enzymatic degradation of free PMB and PMB being incorporated into NPs was evaluated with lipase. Lipase solution was prepared by dissolving 0.5 g of the enzyme in 10 mL of digestion medium (2 mM Tris buffer with 5 mM CaCl2 and 150 mM NaCl). After homogenization for 10 min, the enzyme mixture was centrifuged at 12,000 rpm (Sigma 3-18KS, Austria) for 15 min at 4 °C.[17] Thereafter, 2 mL of the supernatant liquid was added to 4 mL of 0.01% (m/v) PMB–PP NPs suspension and incubated at 37 °C under constant shaking using a ThermoMixer (Eppendorf, Hamburg, Germany). Aliquots of 100 μL were withdrawn at predetermined time points (0, 1, 2, 4, 6, 12, and 24 h) and transferred to a 96-well microplate (μClear 96-well plates, Greiner bio-one, Austria). PMB–PP NPs and PMB suspension without lipase served as negative control and were incubated under the same conditions. […] The same settings were applied for PMB. The PMB concentration was determined using a calibration curve with increasing concentrations of PMB ranging from 0.78 to 50 μM.
Degradation was evaluated by quantifying the % remaining amount of PMB by the following equation: [drawing 3]

[3] = cited from earlier work
Text: The ionic strength of the polycation plays also an important role in the formation of such particles. […] PMB–PP NPs could therefore be formed.

## Polymyxin B sulfate [PMB]
[1]; 44 of 50 multidrug-resistant Gram-negative bacterial strains
  MICs (minimum inhibitory concentrations): ≥ 4 µg/mL
[1]; the other 6 of 50 multidrug-resistant Gram-negative bacterial strains
  MICs (minimum inhibitory concentrations): 2 µg/mL
[2]
  PMB degraded after lipase exposure: 39.32%
[3]
  isoelectric point: 10.74
